US7132286B2, “Method for neural stem cell differentiation using valproate” (Psychiatric Genomics, Inc., priority 2001, dated 2006)
“Also recorded” adds a separate entry of the source.

Assays:
[1] = tested on: human striatal stem cells (line 161); assay: Neuronal differentiation of human striatal stem cells (β tubulin III neurons, total cells); type: cell-based; conditions: 9 days
Method: Expansion and differentiation of striatal human stem cells. Human stem cells were provided from ReNeuron Inc. (U.K.). Striatum was obtained after 6 to 12 weeks of gestation from routine legal abortion. Cell line was provided by ReNeuron at passage 16. The stem cells were expanded in untreated 25 cm^2 tissue culture flasks (Nunc, USA) in the presence of 20 ng/ml and 10 ng/ml of human recombinant EGF and bFGF respectively, in NSA basal serum-free medium (Euroclone, U.K). Fresh medium and growth factors were added every 3 days. In these conditions stem cells were growing as floating neurospheres. After 4 weeks, the neurospheres were harvested, treated with a mild papain treatment in HBSS and dissociated into a single cell suspension. Cells were counted and viability was estimated by trypan blue exclusion method. Cells were differentiated by growth factors removal. The cells were plated in NSA medium at 20,000 cells/well on LabTek permanox culture slides of 8 wells precoated with laminin (1 μg/ml). Cells were treated with valproate and BDNF for 9 days at 37° C. and a saturated humidified atmosphere of 5% CO2, 1% O2 and 94% N2. Fresh medium and re-treatment with factors was performed every 3 days.
Drug treatment. For immunofluorescence and Western analysis, cells were treated daily with either 0.5 mM of valproate (Sigma), 10 ng/ml of BDNF (R & D Systems), 20 ng/ml of NT-3 (R & D Systems), 1 nM 9cis retinoic acid (Sigma) or a dilution of NCM for 6 or 7 days. In some experiments valproate was also added with NCM and/or 9cis RA for 7 days. For human stem cell experiments, valproate (0.5 mM) or BDNF (25 ng/ml) was added for 9 days. For neurite outgrowth experiments, cells were treated for 1 day with 0.5 mM valproate or 50 ng/ml of BDNF. Where applicable, medium was changed every 2 days. After about 5–10 days, preferably on day 6 (i.e., after 6 days of drug exposure) the cells were fixed with a 4% solution of para-formaldehyde (PFA) in PBS, prepared as follows:
Immunofluorescent staining and visualization. Cells were plated at 20,000 cells/well in poly-L-ornithine/fibronectin (1 mg/ml) coated 24-well plates. […]
For counting, three to five different fields of interest at magnification 10× or 20× were chosen randomly. For immunofluorescence, 3 different black and white pictures were taken by field of interest with a digital camera CoolSnap Fx (Princeton) corresponding to the exposure of Cy2, Cy3 and Hoechst fluorescence. […] The percentage of neurons, astrocytes and GABAergic cells was determined by comparing the number of cells immunopositive for β-tubulin III, GFAP and GABA to the number of bis-benzamide stained nuclei (i.e., total cell number). […]

[2] = tested on: rat stem cells from ventral forebrain i.e. the lateral ganglionic eminence (LGE); assay: Neuronal differentiation of rat stem cells from ventral forebrain (lateral ganglionic eminence); type: cell-based; conditions: data not shown
Method: Isolation of cortical and striatal stem cells. […] The abdomen of the rat was cleaned with 70% ethanol and the uterus was removed quickly and aseptically on the bench top.
Removal of meninges is not possible at this age, and no attempt was made to do so. If the dissected tissue was in large enough chunks and settle to the bottom of the tube, no centrifugation was performed. Alternatively, the tube was centrifuged at 1000 rpm for 5 minutes to pellet the tissue. Following centrifugation, the 15 ml tube containing the tissue was sprayed with 70% ethanol and taken into the sterile hood.
About 4–5 ml of the 6 ml of cells suspension was used for plating. […] This culture is designated P0 (passage 0).
The cultures were never permitted to reach more than 70% confluency. […] It is not expected that all cells in the culture will round up as there are several cell types in the culture at P0. The pH of the HBSS should be neutral at all times during this incubation.

[3] = tested on: teratocarcinoma cell line NTera-2; conditions: NTera-2 cells (Skladchikova et al.); cited from earlier work

**Q.** With `CCCC(CCC)C(=O)O` [valproate, 2-Propylpentanoic acid] as the compound, how does the “effect on cell proliferation (cell density)” value [1] read?
**A.** The value was “without inhibiting cell proliferation”.

**Q.** What about the “effect on number of β tubulin III positive neurons / neuronal differentiation” value [1] of the same compound?
**A.** The value was “increased the number of β tubulin III positive neurons compared to control and BDNF-treated cultures; also recorded: increases neuronal differentiation in human stem cell culture”.

**Q.** And the neuronal differentiation ([1]; 0.5 mM valproate, BDNF 25 ng/ml, untreated control 40%)?
**A.** The neuronal differentiation was 70%.

**Q.** And the “percentage and number of neurons” value [2]?
**A.** Its value is “increased the percentage and number of neurons”.

**Q.** What about the “proliferation and retinoic acid-induced neuronal differentiation” value [3] of the same compound?
**A.** The value was “inhibit the proliferation and block retinoic acid-induced neuronal differentiation”.
